Measurements as given in patent publication US12653899B2, “Multi-targeted, tunable, sustained delivery of payloads to charged avascular tissues” (Massachusetts Institute of Technology, priority 2019, dated 2026).

Key:
Assay type in all cases: cell-based
[1] = test system: human knee cartilage explants; test: Aggrecan/sGAG biosynthesis rate (35S-sulfate incorporation) in human knee cartilage explants
Description: (§1) Cartilage was harvested from the knee joint of a donor. Cartilage explants were equilibrated in culture media for 2 days after harvest. […] These were cut down to 1 mm thickness and allowed to equilibrate for a further 2 days before the experiment was set up. Subsets of the experiment were terminated at 3 days and 7 days from the start of the experiment. Media changes were performed every 2 to 3 days.
For the 3-day termination experiment, chondrocyte biosynthesis rate (primarily aggrecan synthesis) was measured between days 0 and 3 of the experiment using a 35S-sulfate radiolabel. For the 7-day termination experiment, this measurement was done between days 5 and 7. Statistics: 1-way ANOVA with post-hoc Tukey's HSD test.
as §1, with “for 3” for “for 2”, “further 3” for “further 2”
Cartilage explants that were equilibrated in culture medium post-harvest were transferred to ultra-low attachment cell culture plates (Corning) for dose response experiments. All experiments were carried out in low glucose, serum free medium (same composition as equilibration medium). Previous studies studying the effects of IGF-1 on cartilage explants have used doses ranging from 10 ng/ml to 300 ng/ml. Based on these, 300 ng/ml (equivalent to 39.2 nM) of free recombinant human IGF-1 (PeproTech, Rocky Hill, NJ) was used as the positive control.
(§2) Since each fusion protein had one IGF-1 domain, equivalent doses (39.2 nM) of these were tested. In addition to this, 500 nM, 1 μM and 2 μM doses of fusion proteins were also tested. In all cases, only a single dose of the fusion proteins was added at the start of the experiment, and media changes were carried out without fusion proteins once every 2 to 3 days thereafter. In contrast, continuous doses of free IGF-1 were used for the positive control. An untreated control group was also included in the experiments. Experiments were terminated at 3-day, 7-day and 15-day time points. Outcome measures included the biosynthesis rate of sulfated glycosaminoglycans (sGAG), explant metabolic rate, sGAG loss to the culture medium and the explant sGAG content at the end of the experiment.
The metabolic rate of cartilage explants was measured using the Alamar Blue assay (ThermoFisher). Cartilage explants were incubated for 3 hours in a 1× solution of Alamar Blue dissolved in culture medium. At the end of the incubation period, the absorbance of the medium at 570 nm and 600 nm was measured using a microplate reader (Synergy H1 Hybrid Multi-Mode Microplate Reader, BioTek). These readings were used to calculate the percentage reduction of Alamar Blue, which is directly proportional to the explant metabolic rate. These values were first normalized by individual explant weights. Following this, the weight-normalized readings for the treatment groups were normalized by the weight-normalized mean value for the untreated controls. To measure the chondrocyte biosynthesis rate of sulfated glycosaminoglycans (sGAGs), cartilage explants were cultured in the presence of 10 μCi/mL 35S-sulfate radiolabel during the final two days of each experiment. Following this, the explants were washed with PBS with non-radioactive sulfate to wash out excess radiolabel, weighed and digested with proteinase K. A liquid scintillation counter (PerkinElmer) was used to measure the amount of radiolabel incorporated within the extracellular matrix of the tissues. Radiolabel incorporation data were normalized by the duration of exposure to radiolabel and by the wet weight of the explants (Li et al., Osteoarthritis and Cartilage 23(2):266-274 (2015)). […]

[2] = test system: human ankle cartilage explants treated with IL-1β; test: Cumulative sGAG loss and final sGAG content (DMMB) in IL-1β challenge, human ankle cartilage; conditions: 100 pg/ml IL-1β; for cumulative sGAG loss compared to the untreated control: 10-day time point
Description: Preliminary dose response experiments were performed to test the effects of human IL-1β (PeproTech, Rocky Hill, NJ) on human ankle cartilage. Ankle cartilage explants from two different donors (equilibrated in culture medium post-harvest) were cultured in serum-free low glucose medium (same composition as equilibration medium) and treated with continuous IL-1β doses ranging from 10 pg/ml to 1 ng/ml for 8 days. The experiments also included groups of explants that were treated with 300 ng/ml free IGF-1 at each dose level of IL-1β. Based on the results of these experiments, 100 pg/ml IL-1β was chosen as the dose used for the fusion protein dose response experiments. In these experiments, ankle and knee cartilage explants (equilibrated in culture medium post-harvest) were treated continuously with IL-1β and received single doses of fusion proteins (ranging from 39.2 nM to 2 μM) at the start of the experiments. Media changes with IL-1β but without fusion proteins were performed once every 2 to 3 days. An untreated control group, a control with continuous IL-1β alone, and a control with IL-1β combined with continuous free IGF-1 (300 ng/ml or 39.2 nM) were included. Experiments were terminated at 7-day and 10-day timepoints, and the sGAG biosynthesis rate, metabolic rate, sGAG loss to culture medium and sGAG content of the explants were measured.
The metabolic rate of cartilage explants was measured using the Alamar Blue assay (ThermoFisher). Cartilage explants were incubated for 3 hours in a 1× solution of Alamar Blue dissolved in culture medium. At the end of the incubation period, the absorbance of the medium at 570 nm and 600 nm was measured using a microplate reader (Synergy H1 Hybrid Multi-Mode Microplate Reader, BioTek). These readings were used to calculate the percentage reduction of Alamar Blue, which is directly proportional to the explant metabolic rate. These values were first normalized by individual explant weights. Following this, the weight-normalized readings for the treatment groups were normalized by the weight-normalized mean value for the untreated controls. To measure the chondrocyte biosynthesis rate of sulfated glycosaminoglycans (sGAGs), cartilage explants were cultured in the presence of 10 μCi/mL 35S-sulfate radiolabel during the final two days of each experiment. […] To calculate the cumulative loss of GAGs from the explants, the amount of sGAG lost to the medium and that left behind in the explants at the end of the experiment were measured using the dimethylene blue (DMMB) dye binding assay (Farndale et al., Biochim Biophys Acta. 883(2):173-177 (1986)).

[3] = test system: human ankle cartilage explants; test: Cumulative sGAG loss and final explant sGAG content (DMMB), human ankle cartilage dose response; conditions: continuous free IGF-1; any of the three time points
Description: as §2
The metabolic rate of cartilage explants was measured using the Alamar Blue assay (ThermoFisher). […] At the end of the incubation period, the absorbance of the medium at 570 nm and 600 nm was measured using a microplate reader (Synergy H1 Hybrid Multi-Mode Microplate Reader, BioTek). These readings were used to calculate the percentage reduction of Alamar Blue, which is directly proportional to the explant metabolic rate. […] Following this, the weight-normalized readings for the treatment groups were normalized by the weight-normalized mean value for the untreated controls. […]

[4] = Experiment 1, knee, donor, single 500 nM dose, 3-day time point (days 0-3)
[5] = Experiment 2, knee, donor, single 2 μM dose, 3-day time point
[6] = Experiment 2, knee, single 1 μM dose, 7-day time point
[7] = Experiment 2, knee, single 2 μM dose, 7-day time point

| Substance | aggrecan biosynthesis rate compared to the untreated control [1, 4] | aggrecan biosynthesis rate compared to the untreated control ([1]; Experiment 2, knee, donor, single 1 μM dose, 3-day time point) | aggrecan biosynthesis rate compared to the untreated control [1, 5] | aggrecan biosynthesis rate compared to the untreated control [1, 6] | aggrecan biosynthesis rate compared to the untreated control [1, 7] | cumulative sGAG loss compared to the untreated control ([2]; single 2 μM dose) | aggrecan biosynthesis rate compared to the untreated control ([1]; Experiment 1, knee, donor, single 2 μM dose, 3-day time point) | mean aggrecan biosynthesis rate at Day 7 versus Day 3 ([1]; Experiment 1, knee, single 500 nM and 2 μM doses on Day 0) | aggrecan biosynthesis rate compared to the untreated control ([1]; Experiment 1, knee, single 500 nM dose, 7-day time point (days 5-7)) | aggrecan biosynthesis rate compared to the untreated control ([1]; Experiment 1, knee, single 2 μM dose, 7-day time point) | aggrecan biosynthesis rate compared to the untreated control ([1]; Experiment 2, knee, donor, single 500 nM dose, 3-day time point) | cumulative sGAG loss compared to the untreated control ([2]; single 500 nM dose) | aggrecan biosynthesis rate compared to the untreated control ([1]; Experiment 1, knee, donor, continuous 40 nM free IGF-1, 3-day time point) | aggrecan biosynthesis rate compared to the untreated control ([1]; Experiment 1, knee, continuous 40 nM free IGF-1, 7-day time point) | aggrecan biosynthesis rate compared to the untreated control ([1]; Experiment 2, knee, continuous 40 nM free IGF-1, 3-day time point) | aggrecan biosynthesis rate compared to the untreated control ([1]; Experiment 2, knee, continuous 40 nM free IGF-1, 7-day time point) | final explant GAG content or cumulative GAG loss percent compared to the untreated control [3] | cumulative sGAG loss to the medium compared to the untreated control ([2]; 7-day time point (FIG. 15C)) |
| --- | --- | --- | --- | --- | --- | --- | --- | --- | --- | --- | --- | --- | --- | --- | --- | --- | --- | --- |
| (+9GFP)-(EAAAK)3-(IGF-1): fusion protein of +9 GFP and human IGF-1 with rigid (EAAAK)3 linker, SEQ ID NO: 8 | not statistically significantly different | statistically significantly higher | statistically significantly higher | statistically significantly higher | statistically significantly higher | higher cumulative sGAG loss |  |  |  |  |  |  |  |  |  |  |  |  |
| (+9GFP)-(GGGGS)4-(IGF-1): fusion protein of +9 GFP and human IGF-1 with flexible (GGGGS)4 linker, SEQ ID NO: 7 | significantly higher |  | statistically significantly higher | statistically significantly higher | statistically significantly higher |  | not statistically significantly different | the same as the rate on Day 3 | not statistically significantly different | not statistically significantly different | statistically significantly higher | higher cumulative sGAG loss |  |  |  |  |  |  |
| IGF-1: free recombinant human IGF-1 (PeproTech), pro-anabolic growth factor used as the positive control |  |  |  |  |  |  |  |  |  |  |  |  | significantly higher | significantly higher | statistically significantly higher | statistically significantly higher | did not have any change | higher cumulative sGAG loss |
